Data as given in ChEMBL document CHEMBL3507680, “University of Dundee, Gates Library screen for HepG2 cell viability”.

Assay: Human HepG2 cell viability assay in 384 well format
Format: toxicity, cell-based
Set-up: dose 125 nL, time 70.5 hour; cytotoxicity at 70.5 h: concentration not given beside the values
Conditions: HepG2 cells, read-out: Inhibition

| SMILES | cytotoxicity at 70.5 h |
| --- | --- |
| CC(=O)c1ccc(OCC(=O)c2cccn2C)cc1 | -0.625% |
| Cc1nc2c(c(=O)[nH]1)CCN(C(=O)c1cccc3nccnc13)C2 | 0.0996% |
| CCOC(=O)CC(c1ccc(OC)cc1)c1c(O)n[nH]c1C (stereo not drawn) | -13.7% |
| FC(F)(F)c1ccc(CNC[C@H]2COCc3nc4cccnc4n32)cc1 | -3.68% |
| CCCn1nc(C)c(CNC(=O)C2COc3ccc(OC)cc3C2)c1C (stereo not drawn) | -2.92% |
| CCS(=O)(=O)NCCN(CCO)C1CCc2ccccc21 (stereo not drawn) | -58.4% |
| Cc1cnccc1N1CCCN(C(=O)CCn2ccnc2C)CC1 | -3.98% |
| CC(=O)NC1CCCN(C(=O)c2ccc(Br)cc2O)C1 (stereo not drawn) | -8.57% |
| CC(C)NC(=O)[C@@H]1C[C@@H]2CCN(Cc3ccoc3)C[C@H]2O1 | 0.151% |
| O=C(c1ccco1)N1CCOCC2(C1)CN(c1cccnc1)C(=O)CO2 (stereo not drawn) | -3.1% |
| CCc1cccc(NC(=O)CCN2CC=C(c3cnn(C)c3)CC2)c1 | -5.53% |
| Cc1ccc(C(=O)N2CCCCC2c2[nH]ncc2S(C)(=O)=O)cn1 (stereo not drawn) | -2.26% |
| COCCOc1ccnc(-c2noc([C@@H]3CCCN3C(C)C)n2)c1 | -5.66% |
| CC(C)c1cc(C2CCCN2C(=O)c2cn3ccsc3n2)no1 (stereo not drawn) | -5.17% |
| Cn1cnn(CC(=O)NCc2ccccc2F)c1=O | 20.6% |
| Cc1nc(CNC(=O)NCCc2ccc(N(C)C)cc2)cs1 | -0.758% |
| CCC[C@]12CN3C[C@](CCC)(CN(C1)C3c1[nH]c(=O)[nH]c(=O)c1C)C2=O (stereo partly drawn) | -10.7% |
| CCc1nc(C2CCCN2C(=O)c2ccc3c(c2)nnn3C)no1 (stereo not drawn) | 16.3% |
| CC(C)C(=O)NC1CCCN(C(=O)c2ccccc2O)C1 (stereo not drawn) | -7.34% |
| Cc1cccc(C2(C(=O)NCCCn3cccn3)CC2)c1 | -5.49% |
| C/C=C(/C)C(=O)NS(=O)(=O)c1ccc(C(F)(F)F)cc1 | 0.976% |
| Cc1nccnc1C1CCN(C2CCCC2O)CC1 (stereo not drawn) | -0.726% |
| Cc1ccc(N2CCCC(N(C)Cc3c(C)noc3C)C2)nn1 (stereo not drawn) | 25.3% |

| SMILES | cytotoxicity at 70.5 h |
| --- | --- |
| Cc1ncsc1CCN(C)C(=O)CN1CCCCC1=O | 12.5% |
| CC(c1ccc(Cl)cc1)N1CCN(CCCS(N)(=O)=O)CC1 (stereo not drawn) | 35.8% |
| NCC1CCCCN1C(=O)Cc1cccc(Br)c1 (stereo not drawn) | -4.6% |
| Cc1ccnc(NC(=O)c2ccc(-n3ncc(C#N)c3N)cc2)c1 | -6.86% |
| COC(=O)C(C)(C)C(C)(C)NC(=O)Nc1nnc(-c2ccccn2)s1 | -10.6% |
| COC(=O)CNC(=O)c1cn(Cc2ccccc2F)nn1 | -5.61% |
| CC(=O)N1CCC(C(=O)N2CCC(=Cc3cccc(F)c3)CC2)CC1 | -11.3% |
| CC(C)NC(=O)[C@H]1C[C@@H]2[C@@H](C1)OCCN2Cc1ccccn1 | -5.2% |
| Cc1cnccc1NC(=O)CCc1ccsc1 | -13.1% |
| CCC(=O)NCC(=O)NCC1(O)CCC(C(C)(C)C)CC1 (stereo not drawn) | -7.33% |
| O=C(NCCNc1ncccn1)N1CCCC(C(F)(F)F)C1 (stereo not drawn) | -9.23% |
| CSc1ccc(CNC2CCN(CCc3ccncc3)CC2)cc1 | -1.82% |
| CCS(=O)(=O)N1CCN(C(=O)NC(C)C)CC2(CNC(=O)C2)C1 (stereo not drawn) | -26.5% |
| O=C(NCC1(O)CCOCC1)c1ccn(-c2ccccc2F)n1 | -9.56% |
| COc1ccc(OC2CCN(C(=O)CCc3n[nH]c(C)n3)CC2)cc1 | 22.6% |
| c1ccc(NC[C@@H]2CCC[C@@H]3CN(c4ncccn4)C[C@@H]32)nc1 | -13.7% |
| O=C(NCCSC1CCCC1)c1cc(C2CC2)on1 | -0.97% |
| CN1N=C(C(=O)N2CCCCC2)S(=O)(=O)c2ccccc21 | 1.74% |
| COc1cccc2c1ccn2CCNC(=O)CCNc1ncccn1 | -18% |
| O=C(CN1CCN(CC2CCOc3ccccc3C2)CC1)N1CCCC1 (stereo not drawn) | -13% |
| Cc1c(NC(=O)CN2CCN(C3CCCC3)C(=O)C2)cnn1C | -2.64% |
| Cn1nc2c(cc1=O)CN(Cc1coc(-c3cccs3)n1)CC2 | -7.48% |
| CNc1ncccc1C(=O)N1CCCC2(C1)C(=O)N(C)c1ccccc12 (stereo not drawn) | -7.64% |

| SMILES | cytotoxicity at 70.5 h |
| --- | --- |
| COCC(=O)N1CCC2(CC(C(=O)NCc3cccnc3)=NO2)C1 (stereo not drawn) | -5.23% |
| CNC(=O)C1CCN(C(=O)c2cccn2Cc2cccs2)CC1 | -8.46% |
| Cc1cccc(N2CCCC3(C2)CN(S(C)(=O)=O)CCO3)c1 (stereo not drawn) | -4.48% |
| O=c1[nH][nH]cc1-c1ccnc(NCCCN2CCOCC2)n1 | -1.38% |
| O=C(c1ccc[nH]1)N1CCc2ncc(Cn3cccn3)n2CC1 | 18.1% |
| Cc1noc(C)c1CN1CCO[C@H]2CN(Cc3cccnc3)C[C@H]21 | -4.34% |
| COc1cccc2c1ccn2CCC(=O)NCCCC(=O)O | -3.23% |
| N#Cc1cccc(CN2CCN(C(=O)C3CCC3)[C@@H]3CS(=O)(=O)C[C@@H]32)c1 | -4.15% |
| Cc1ccc(C(=O)Cc2c(Cl)nc3n(C)c(=O)n(C)c(=O)n23)cc1 | -9.41% |
| N#Cc1ccc(CNCC2(c3ccccc3)CCOCC2)cc1 | -12% |
| CS(=O)(=O)N1CCCN(CCCSCc2ccccc2)CC1 | -8.27% |
| Cc1ccc(Cn2cc(C)c(N)n2)cc1 | 22.1% |
| CN(C)C(C(=O)N1CCC(N2CCSCC2)CC1)c1ccccc1F (stereo not drawn) | -3.23% |
| Cc1nnc(N2C[C@H](OCC3CCCC3)[C@H]3OCCC[C@H]32)s1 | -5.71% |
| Cn1cc(CN2CCCN(C(=O)c3cc[nH]n3)CC2)cn1 | -9.96% |
| NC(=O)CCC1CCCN(c2ccc3ccc(F)cc3n2)C1 (stereo not drawn) | -3.15% |
| COc1cc(OC)c(C2CC(=O)Oc3cc(C)[nH]c(=O)c32)cc1OC (stereo not drawn) | -19.4% |
| COc1c(CNCCC(=O)Nc2cccc(C)n2)c(C(C)C)nn1C | 14.3% |
| CC(C)CNC(=O)N1CCC2(CCCO2)C1 (stereo not drawn) | -1.61% |
| CNc1nc(C2CCCCN2C(=O)C(C)(C)OC)nc2c1CN(C)CC2 (stereo not drawn) | -7.36% |
| Cn1cccc1CCC(=O)N1CCC2(CC1)c1ccccc1CC2O (stereo not drawn) | -12.2% |
| CC(C)n1ncc2c1NC(=O)C(C#N)C21CCCC1 (stereo not drawn) | -11.3% |
| Cc1nc(O)c2nnn(C[C@H]3CCCN3C(=O)c3ccccc3F)c2n1 | -0.74% |

| SMILES | cytotoxicity at 70.5 h |
| --- | --- |
| Cc1cn2nc(N3CCCC3C(=O)N3CCSCC3)sc2n1 (stereo not drawn) | -8.52% |
| COc1ccc(CNc2nc(C3CC3)nc3c(C)nn(C)c23)cc1 | -0.926% |
| OC1CCN([C@@H]2CCN(c3nc(-c4ccccc4)no3)C[C@H]2O)CC1 | -1.33% |
| CCCc1n[nH]c(C2CN(CCNC3CCCCC3)CCO2)n1 (stereo not drawn) | 9.34% |
| O=S1(=O)c2ccccc2OCC2(CCN(CCO)CC2)CN1CC1CC1 | -0.378% |
| c1cnc(N2CCc3onc(CN4CCOCC4)c3C2)cn1 | -9.12% |
| Cc1ccc(OCC(=O)NC2(C#N)CCSCC2)cc1C | -10.6% |
| Cc1nnsc1CNC(=O)CSCc1ccccc1Cl | -7.02% |
| CCc1noc(C)c1C(=O)N1CCCC(n2nc(C)nc2C)C1 (stereo not drawn) | -2.69% |
| Cc1nc(CNCC2Cn3nncc3CO2)cs1 (stereo not drawn) | -2.11% |
| Cc1cc(-c2cnc(N3CCCC3)nc2C(C)C)on1 | -7.72% |
| Cc1nc(C)n(CC2CCCN2Cc2cccc3c2OCCO3)n1 (stereo not drawn) | -5.55% |
| Cc1cc(C)c(CNC(=O)N2CCCN(C(=O)C(C)C)CC2)c(C)c1 | 15.9% |
| CN(C)CCN1C[C@@H]2CN(S(=O)(=O)c3cccs3)C[C@@H]2C1=O | -10.9% |
| c1ccc(-n2cnnc2CCCN2CCOCC2)cc1 | -2.59% |
| COc1cccc(C2CC(=O)Nc3c2c(=O)n(C)c2ncnn32)c1 (stereo not drawn) | 16.7% |
| CN(C)c1ncc2c(n1)C1(CCN(CC3CC3)C1)COC2 (stereo not drawn) | -8.15% |
| Cc1nn(C)c(C)c1C1CCCN1C(=O)CCCNc1ncccn1 (stereo not drawn) | -8.51% |
| CCOc1ccc(-n2ccc3nc(N4CCCC4)ncc3c2=O)cc1 | -2.37% |
| O=C(CCC1CCN(Cc2ncc[nH]2)CC1)Nc1ccccc1Cl | -10.7% |
| Cc1nc(Nc2cnccn2)cc(C2CCN(CCO)C2)n1 (stereo not drawn) | -9.95% |
| CC(O)C1CCN(Cc2nccn2CC(F)(F)F)CC1 (stereo not drawn) | -7.97% |
| CCN1CCN(c2ccc(F)cc2C(C)NCc2noc(C)n2)CC1 (stereo not drawn) | -7.42% |

| SMILES | cytotoxicity at 70.5 h |
| --- | --- |
| COCCN(Cc1ccccc1)c1cc(C)ncn1 | -6.25% |
| CC(C)N[C@@H]1CO[C@H](CNC(=O)c2cccs2)[C@H]1O | 1.83% |
| COc1cc(C)nc(N2CCN(C(=O)c3cc(Cl)c[nH]3)CC2)n1 | -1.56% |
| O=C(NCc1nncn1C1CC1)C1(c2cccc(F)c2)CCOCC1 | -9.71% |
| CCCC(O)CN1CCC(=O)N(C)Cc2cc(F)ccc21 (stereo not drawn) | 18.5% |
| Cc1nc[nH]c1CN1CCC(C2CCN(CCc3ccccc3)C2)CC1 (stereo not drawn) | -1.67% |
| Cc1nc2n(n1)CC(NCc1nc3ccccc3o1)CC2 (stereo not drawn) | 1.97% |
| CCCc1noc(CNc2cc(C[S+](C)[O-])ccc2Cl)n1 (stereo not drawn) | -3.29% |
| COCCN1CCN(Cc2nnc(-c3occc3C)o2)CC1 | -6.39% |
| Cc1cc(C(F)(F)F)nn1CCCNC(=O)C1CCCC1 | -1.45% |
| CCOCC1CN(Cc2ccoc2)Cc2ncn(CC3CC3)c21 (stereo not drawn) | 5.39% |
| CCNC(=O)NCc1cnn(-c2ccc(F)cc2F)c1 | -10.2% |
| Cc1c(F)cccc1S(=O)(=O)N(C)CC(C)O (stereo not drawn) | -11.6% |
| CCc1ccc(CN2C[C@@H](c3nc(C)no3)C[C@H]3OCC[C@H]32)o1 | -3.87% |
| CC[C@@H](Cn1ncc2ccccc2c1=O)NC(=O)c1cnccn1 | -4.08% |
| Cc1ccc(N(C)[C@@H]2CC[C@@H]3CN(C(=O)CC4CCOCC4)C[C@@H]32)nn1 | -7.61% |
| c1cc(-c2cnccn2)cc(-c2ccn(CCN3CCCC3)n2)c1 | 12.2% |
| N#Cc1ccc(CSCCN2CCOCC2)cc1 | -5.15% |
| Cc1c(CN2CCCC2(C)C(=O)NC2CCCC2)cnn1C (stereo not drawn) | 5.02% |
| Cn1nc2c(cc1=O)CN(CCOc1ccccc1C#N)CC2 | 35% |
| Cc1ccccc1CN1C[C@@H](C(=O)N2CCCCO2)C[C@H]2OCC[C@H]21 | -7.46% |
